# Experimental data published in patent publication US9427433B2, “Methods and compositions for enhancing fertility and/or inhibiting pregnancy failure and restoring glucose tolerance” (Queen's University at Kingston, priority 2011, dated 2016).
# How the values were obtained:
# [1] = tested on: 60% high fat fed NZO or DIO mice; test: Body weight gain and visceral fat in high fat fed mice; format: in vivo, mouse
# Description: Twenty NZO and DIO/B6 female mice were maintained on a high fat diet consisted of 60% kcal fat, 20% kcal protein and 20% kcal carbohydrate, with a total energy mass of 5.24 kcal/gm (D12492, Research Diets Inc.; […] Tacrolimus (Prograf (5 mg/ml), Astellas) was administered subcutaneously in a dose of 0.1 mg/kg q2d in 0.2 ml saline for three weeks to the obese and glucose intolerant NZO and DIO mice starting at the age of 10 weeks after which animals were mated to males of the same strain and pregnancy was dated from the morning of the positive detection of vaginal (copulation) plug. See FIG. 2. Facial (mandibular) venous blood samples were collected from treated animals at 24 and 48 hours between injections and at pregnancy days 0.5, 2.5, 4.5, 6.5, 8.5, 10.5, 12.5, 14.5, 16.5 and 18.5, respectively, following a standard procedure for facial bleed in mice (Golde et al. Lab Anim (NY) 2005 34:39-43). A lean cohort of control B6 and BALBc mice was fed with a regular 10 kcal % control chow diet containing the same protein content as the high fat diet with a total energy mass of 3.1 kcal/g (D12450Bi, Cedarlane, Ontario).
# [2] = tested on: uteri of diabetic NOD mice; test: Uterodome maturation (scanning electron microscopy) and uterine LIF Western blot; format: in vivo, mouse
# Description: Using ice-cold sterile glass Dounce-tissue homogenizer, uterine samples collected from virgin and pregnant normoglycemic and diabetic NOD mice were homogenized in 3 volumes of the provided 1× homogenization buffer [Cytosolic and Nuclear Extraction Buffer Kit (Biovision Inc., CA, USA)] as per the manufacturer's instructions. Homogenized samples were centrifuged at 4° C. for 5 minutes at 16,000 g. Supernatants, referred to as cytosolic extracts, were immediately transferred into a clean pre-chilled tube kept on ice. Extraction of nuclear proteins from the remaining insoluble (pellet) fractions followed using ice-cold Nuclear Extraction Buffer Mix according to the supplier's instructions. Protein content of the extracted cytosolic and nuclear fractions was determined by Bradford assay. Extracted protein samples were aliquoted and stored at −80° C. for further analyses.
# Mouse uterine cytosolic and nuclear proteins were resolved on 6 or 8% (w/v) Tris-SDS denaturing polyacrylamide gels in 1× sample loading buffer (150 mM sodium chloride, 1.0% Triton X-100 and 50 mM Tris, pH 8.0). Urea (8M) was added to the Tris-based SDS-PAGE for the detection of MUC1. […] Background-corrected intensities of Western blot protein bands on scanned films were processed using Image J. Data were expressed as means±SEM. GAPDH (detected as a band of approximately 37 kDa) was used as an internal loading control. […]
# [3] = tested on: patients with type I diabetes; conditions: 0.15 mg/kg BID; cited from earlier work
# diabetic NOD mice = test: Weekly non-fasting blood glucose monitoring; format: in vivo, mouse; conditions: FIG. 16A
# Description: Through the use of Ultra Glucosemeter (Accu-Chek Aviva/Roche Diagnostic, Laval, Quebec, Canada) blood glucose levels for all mice were monitored via tail venipuncture once a week on a regular basis beginning at the age of 8 weeks. Animals with non-fasting or those having blood glucose values ≧14.9 mmol/L after the glucose challenge (glucose tolerance) test were identified as diabetic. […] The selected mice were 9 weeks old and were treated with 0.1 mg/kg q2d of tacrolimus (Prograf (5 mg/ml), Astellas) subcutaneously administered in 0.2 ml saline for three weeks after which animals were mated to males of the same strain (See FIG. 1). Vehicle (0.2 ml saline, s.q.) treated hyperglycemic NOD female mice were allowed two weeks in diabetes before they were mated to males of the same strain. Facial (mandibular) venous blood samples were collected from treated animals at 24 and 48 hours between injections and at pregnancy days 0.5, 2.5, 4.5, 6.5, 8.5, 10.5, 12.5, 14.5, 16.5 and 18.5 respectively following a standard procedure for facial bleed in mice (Golde et al Lab Anim (NY) 2005 34:39-43).
structure (smiles),measurement,setting,value
C=CC[C@@H]1/C=C(\C)C[C@H](C)C[C@H](OC)[C@H]2O[C@@](O)(C(=O)C(=O)N3CCCC[C@H]3C(=O)O[C@H](/C(C)=C/[C@@H]3CC[C@@H](O)[C@H](OC)C3)[C@H](C)[C@@H](O)CC1=O)[C@H](C)C[C@@H]2OC [tacrolimus],body weight gain,"[1]; after the initial administration, FIG. 19B",prevented body weight gain for seven consecutive weeks
same,mass of the visceral fat,[1]; all treated mice,significantly lower
same,uterine LIF protein expression (Western blot),[2]; days 4.5 and 6.5 postcoitum,induced LIF protein expression
same,maturation of uterodomes at implantation sites,[2]; pregnancy day 4.5,inducing maturation of uterodomes
same,outcome of clinical study in type I diabetes,[3],inconclusive
same,weekly non-fasting blood glucose (glycemic phenotype),diabetic NOD mice,effective in restoring normal glycemic phenotype
